Like-named read-outs stand apart in the source and are kept apart here.
Assays:
Type in all cases: in vivo
[1] = test system: barnyardgrass (Echinochloa crus-galli); experiment: Test A pre-/postemergence plant response; details: Echinochloa crus-galli, 240 h, read-out: Plant response rating, Barnyardgrass; for pest or weed control at 125 g/ha: 125 g ai/ha; for pest or weed control at 500 g/ha: 500 g ai/ha, approx. ten days
How it was run: (§1)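 Formulated test chemicals (non-phytotoxic solvent, surfactant) were sprayed onto soil right after planting and simultaneously onto young plants at one to two leaves, 2 to 10 cm tall. Plants stayed in the greenhouse about ten days; injury was then visually scored against untreated controls, from 0 (no effect) to 100 (complete control).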

[2] = test system: giant foxtail (Setaria faberii); experiment: Test A pre-/postemergence plant response; details: Setaria faberi, 240 h, read-out: Plant response rating, Foxtail, Giant; for pest or weed control at 125 g/ha: 125 g ai/ha; for pest or weed control at 500 g/ha: 500 g ai/ha, approx. ten days
How it was run: as §1

[3] = test system: pigweed (Amaranthus retroflexus); experiment: Test A pre-/postemergence plant response; details: Amaranthus retroflexus, 240 h, read-out: Plant response rating, Pigweed; for pest or weed control at 125 g/ha: 125 g ai/ha; for pest or weed control at 500 g/ha: 500 g ai/ha, approx. ten days
How it was run: as §1

corn (Zea mays) = experiment: Test A pre-/postemergence plant response; details: Zea mays, 240 h; for Corn plant response rating (crop injury, 0 = no effect, 100 = complete kill) at 125 g/ha: 125 g ai/ha; for Corn plant response rating (crop injury, 0 = no effect, 100 = complete kill) at 500 g/ha: 500 g ai/ha, approx. ten days
How it was run: as §1

[4] = test system: nightshade (eastern black nightshade, Solanum ptycanthum); experiment: Test B pre-/postemergence plant response; details: Preemergence
How it was run: (§2)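 Pre-em in loam/sand; post-em at 1–4 leaf (2–18 cm) in peat mix. Solvent + surfactant formulation. Greenhouse 13–15 d; visual % control vs untreated, 0–100.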

[5] = test system: sunflower (common oilseed sunflower, Helianthus annuus); experiment: Test B pre-/postemergence plant response; details: Preemergence
How it was run: as §2

[6] = test system: galium (catchweed bedstraw, Galium aparine); experiment: Test B pre-/postemergence plant response; details: Preemergence
How it was run: as §2

[7] = test system: ducksalad (Heteranthera limosa); experiment: Test B flooded paddy test
How it was run: (§3)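 Rice, umbrella sedge, ducksalad and barnyardgrass were grown to the 2-leaf stage, flooded to 3 cm, and compound was applied directly to the paddy water, with that depth kept throughout. After 13 to 15 days in the greenhouse, plants were visually rated against controls on a 0 (no effect) to 100 (complete control) scale.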

[8] = test system: barnyardgrass (Echinochloa crus-galli); experiment: Test B flooded paddy test
How it was run: as §3

[9] = test system: umbrella sedge (Cyperus difformis); experiment: Test B flooded paddy test
How it was run: as §3

rice (Oryza sativa) = experiment: Test B flooded paddy test
How it was run: as §3

[10] = post-emergence, Postemergence, 0 to 100 scale where 0 is no effect and 100 is complete control
[11] = post-emergence, Postemergence, 0 to 100 scale, 0 = no effect, 100 = complete control
[12] = pre-emergence, Preemergence, 0 to 100 scale, 0 = no effect, 100 = complete control
[13] = pre-emergence, Preemergence, visual injury, 0 to 100 scale (0 no effect, 100 complete control)
[14] = 31 g ai/ha, scale 0 to 100 (0 no effect, 100 complete control)
[15] = 62 g ai/ha, scale 0 to 100, 0 no effect, 100 complete control
[16] = 125 g ai/ha, scale 0 to 100, 0 no effect, 100 complete control
[17] = Flood, 31 g ai/ha, scale 0 to 100 (0 no effect, 100 complete control)

In the case of `COCCCn1c(-c2ccccc2)ncc(C(=O)C2=C(O)CCCC2=O)c1=O` [Compound 81, 5-[(2-hydroxy-6-oxo-cyclohexen-1-yl)carbonyl]-3-(3-methoxypropyl)-2-phenyl-4(3H)-pyrimidinone], the pest or weed control at 125 g/ha [1, 10] is reported as 100%, the pest or weed control at 500 g/ha [1, 11] is reported as 100% and the pest or weed control at 125 g/ha [1, 12] is reported as 50%. The pest or weed control at 500 g/ha [1, 13] was 90%, the pest or weed control at 125 g/ha [2, 10] was 80% and the pest or weed control at 500 g/ha [2, 11] was 90%. It also gave a pest or weed control at 125 g/ha [2, 12] of 30%, a pest or weed control at 500 g/ha [2, 13] of 80% and a pest or weed control at 125 g/ha [3, 10] of 100%. For the same compound, the pest or weed control at 500 g/ha [3, 11] was 100%, the pest or weed control at 125 g/ha [3, 12] was 100% and the pest or weed control at 500 g/ha [3, 13] was 100%. The Corn plant response rating (crop injury, 0 = no effect, 100 = complete kill) at 125 g/ha (corn (Zea mays); [10]) was 10%, the Corn plant response rating (crop injury, 0 = no effect, 100 = complete kill) at 500 g/ha (corn (Zea mays); [11]) was 70% and the Corn plant response rating (crop injury, 0 = no effect, 100 = complete kill) at 125 g/ha (corn (Zea mays); [12]) was 0%. The Corn plant response rating (crop injury, 0 = no effect, 100 = complete kill) at 500 g/ha (corn (Zea mays); [13]) was 0%, the “Plant response rating, Nightshade” value [4, 14] was 98 and the “Plant response rating, Nightshade” value [4, 15] was 98. The “Plant response rating, Nightshade” value [4, 16] was 98, the “Nightshade plant response rating” value ([4]; 250 g ai/ha, 0 to 100 scale) was 100 and the “Plant response rating, Sunflower” value [5, 14] was 60. For the same compound, the “Plant response rating, Sunflower” value [5, 15] was 75, the “Plant response rating, Sunflower” value [5, 16] was 85 and the “Sunflower plant response rating” value ([5]; 250 g ai/ha, 0 to 100 scale) was 90. For the same compound, the “Plant response rating, Galium” value [6, 14] was 85, the “Plant response rating, Galium” value [6, 15] was 100 and the “Plant response rating, Galium” value [6, 16] was 100. The “Galium plant response rating” value ([6]; 250 g ai/ha, 0 to 100 scale) was 100, the “Ducksalad plant response rating” value [7, 17] was 0 and the pest or weed control at 250 g/ha ([7]; Heteranthera limosa, 360 h, 250 g ai/ha, flooded paddy test, visual rating on 0 to 100 scale (0 no effect, 100 complete control) after 13 to 15 days, read-out: Plant response rating, Flood, Ducksalad) was 40%. It also gave a pest or weed control at 62 g/ha ([7]; Heteranthera limosa, 360 h, Flood (flooded paddy test), 62 g ai/ha, scale of 0 to 100 where 0 is no effect and 100 is complete control, 13 to 15 days, read-out: Plant response rating, Ducksalad) of 0%, a pest or weed control at 125 g/ha ([7]; Heteranthera limosa, 360 h, Flood (flooded paddy test), 125 g ai/ha, scale 0 to 100, 0 is no effect, 100 is complete control, 13 to 15 days, read-out: Plant response rating, Ducksalad) of 15% and a pest or weed control at 250 g/ha ([8]; Echinochloa crus-galli, 360 h, 250 g ai/ha, flooded paddy test, visual rating on 0 to 100 scale (0 no effect, 100 complete control) after 13 to 15 days, read-out: Plant response rating, Flood, Barnyardgrass) of 60%. The pest or weed control at 62 g/ha ([8]; Echinochloa crus-galli, 360 h, Flood (flooded paddy test), 62 g ai/ha, scale of 0 to 100 where 0 is no effect and 100 is complete control, 13 to 15 days, read-out: Plant response rating, Barnyardgrass) was 0%, the pest or weed control at 125 g/ha ([8]; Echinochloa crus-galli, 360 h, Flood (flooded paddy test), 125 g ai/ha, scale 0 to 100, 0 is no effect, 100 is complete control, 13 to 15 days, read-out: Plant response rating, Barnyardgrass) was 40% and the “Barnyardgrass plant response rating” value [8, 17] was 0. The pest or weed control at 250 g/ha ([9]; Cyperus difformis, 360 h, 250 g ai/ha, flooded paddy test, visual rating on 0 to 100 scale (0 no effect, 100 complete control) after 13 to 15 days, read-out: Plant response rating, Flood, Sedge, Umbrella) was 40%, the pest or weed control at 62 g/ha ([9]; Cyperus difformis, 360 h, Flood (flooded paddy test), 62 g ai/ha, scale of 0 to 100 where 0 is no effect and 100 is complete control, 13 to 15 days, read-out: Plant response rating, Sedge, Umbrella) was 0% and the pest or weed control at 125 g/ha ([9]; Cyperus difformis, 360 h, Flood (flooded paddy test), 125 g ai/ha, scale 0 to 100, 0 is no effect, 100 is complete control, 13 to 15 days, read-out: Plant response rating, Sedge, Umbrella) was 30%. For the same compound, the “Sedge, Umbrella plant response rating” value [9, 17] was 0, the “Rice plant response rating” value (rice (Oryza sativa); [17]) was 0 and the plant injury at 250 g/ha (rice (Oryza sativa); Oryza sativa, 250 g ai/ha, flooded paddy test, visual rating on 0 to 100 scale (0 no effect, 100 complete control) after 13 to 15 days, read-out: Plant response rating, Flood, Rice) was 15%. It also gave a plant injury at 62 g/ha (rice (Oryza sativa); Oryza sativa, Flood (flooded paddy test), 62 g ai/ha, scale of 0 to 100 where 0 is no effect and 100 is complete control, 13 to 15 days, read-out: Plant response rating, Rice) of 0% and a plant injury at 125 g/ha (rice (Oryza sativa); Oryza sativa, Flood (flooded paddy test), 125 g ai/ha, scale 0 to 100, 0 is no effect, 100 is complete control, 13 to 15 days, read-out: Plant response rating, Rice) of 15%.

From patent US8952024B2, “Herbicidal pyrimidone derivatives” (E I du Pont de Nemours and Company, priority 2009, dated 2015)
